This is an account of results in PMC6934184, “Selective DNA-PKcs inhibition extends the therapeutic index of localized radiotherapy and chemotherapy” (The Journal of Clinical Investigation, 2019).

This assay deals with T1, CDK2/cyclin O (Homo sapiens, UniProt P24941).
T1 construct: purchased Thermo Fisher Scientific (Life Technologies) SelectScreen
Kind of assay: SelectScreen LanthaScreen. It counts as binding. The note with it: 1 µM. Summed up:
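SelectScreen broad panel; activity (Z'LYTE, Adapta) plus binding formats. ATP: Km app for CSF1R Z'LYTE; 10 for CAMK1 Adapta. Readout = % per kinase.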
(In TR-FRET formats the signal depends on donor and acceptor labels being close together.)

With `CN(C(=O)CN1CCOCC1)c1ccc2sc3c(-c4cccc5c(=O)cc(N6CC7CCC(C6)O7)oc45)cccc3c2c1` [NU5455], the “% displacement” value was found to be 0.9%.
